# Source: PubChem BioAssay (NCI)
# Values joined by “and” are separate entries in the source; they are usually repeats but may differ in a detail not shown here. Equal values may be shown once.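 Results reflect a 48-hour exposure of cells in 96-well plates to compound at five concentrations. At the GI50, growth is halved. TGI marks complete inhibition of growth.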
# Key:
# Test in all cases: growth of human tumour cells (NCI), 48 h
# SNB-75 CNS = tested on: SNB-75 CNS
# MDA-MB-231 breast = tested on: MDA-MB-231 breast
# HCC-2998 colon = tested on: HCC-2998 colon
# UO-31 renal = tested on: UO-31 renal
# M14 melanoma = tested on: M14 melanoma
# HOP-92 NSCLC = tested on: HOP-92 NSCLC
# UACC-62 melanoma = tested on: UACC-62 melanoma
# NCI-H23 lung = tested on: NCI-H23 lung
# RPMI-8226 leukemia = tested on: RPMI-8226 leukemia
# NCI/ADR-RES ovarian = tested on: NCI/ADR-RES ovarian
SMILES,GI50 (SNB-75 CNS) [µM],TGI (SNB-75 CNS) [µM],GI50 (MDA-MB-231 breast) [µM],TGI (MDA-MB-231 breast) [µM],GI50 (HCC-2998 colon) [µM],TGI (HCC-2998 colon) [µM],GI50 (UO-31 renal),TGI (UO-31 renal) [µM],GI50 (M14 melanoma) [µM],TGI (M14 melanoma) [µM],GI50 (HOP-92 NSCLC) [µM],TGI (HOP-92 NSCLC) [µM],GI50 (UACC-62 melanoma) [µM],TGI (UACC-62 melanoma) [µM],GI50 (NCI-H23 lung) [µM],TGI (NCI-H23 lung) [µM],GI50 (RPMI-8226 leukemia) [nM],TGI (RPMI-8226 leukemia) [µM],GI50 (NCI/ADR-RES ovarian) [µM],TGI (NCI/ADR-RES ovarian) [µM]
COc1ccc(C(=O)c2cc3c(OC)c(OC)c(OC)cc3[nH]2)cc1,6.84,28.5,4.96,> 100,3.8,> 100,6.19 µM,> 100,3.69,> 100,9.24,> 100,3.39,> 100,6.25,> 100,2810,8.13,3.2,40.9
S=C1Nc2ccc(Cl)cc2C2(c3ccccc3)N3CCN=C3NN12 (centres undefined),17.6,> 100,32.5,> 100,67,> 100,37.5 µM,> 100,39.9,> 100,32.3,> 100,29.3,> 100,> 100,> 100,21700,57.3,48.8,> 100
CCN1c2ccccc2C(Cl)(c2ccc(N(C)C)cc2)c2ccccc21,5.16,18.2,13.1,37.5,10.9,23.4,1.91 µM,5.27,5.97,20.2,2.84,17,11.6,42.1,3.04,14.4,1070,4.04,13.3,44.6
C=CC1CC12C(=O)C1OC2(C)C2C(=O)c3c(O)ccc(O)c3C(=O)C12 (centres undefined),6.03,15.3,2.33,7.38,13.8,30.1,7.83 µM,25.6,3.58,14.7,2.69,6.59,2.37,6.31,2.95,8.01,423,,3.76,12.1
O=Nc1ccc2ccccc2c1O,2.61,15.7,10,25.1,14.7,29.1,4.99 µM,21.7,5.07,16.5,13.4,27.3,2.23,5.89,3.18,16.1,5690,31.1,2.62,8.22
CC(=O)O/N=C1/C(c2c(O)[nH]c3cc(Br)ccc23)=Nc2ccccc21,0.811,5.11,1.53,3.77,1.68,3.08,0.653 µM,2.4,2,4.88,1.93,5.35,1.17,2.75,1.63,3.62,2030,5.27,1.73,4.59
CO[C@@H]1CC(=O)C2(CC(=O)O[C@@H]2/C=C(\C)CCC=C(C)C)C[C@@H]1O (some centres undefined),1.2,3.66,0.642,1.66,0.214,0.814,1.19 µM,,0.709,1.55,0.84,2.97,0.812,1.71,0.358,1.14,118,0.432,0.487,1.51
COc1cc(/C=C2\CCC(CN(C)C)C2=O)ccc1OC(=O)c1ccccc1 (centres undefined),,35,,19.1,,30.1,,29.8,,22.9,,32.6,,30.9,,36.7,,9.3,,48.7
Cc1ccc2c(c1)NC(=O)CC(c1ccccc1)=N2,,> 100,,79.9,,> 100,,> 100,,> 100,,> 100,,> 100,,> 100,,76.7,,> 100
O=c1[nH]cnc2[nH]ncc12,1180,> 4110,163,1750,319,> 5000,> 64.9 µM and 525 µM,> 5000,234,> 5000,163,> 3250,166,> 2560,227,> 1870,116000,> 5000,214,> 1250
COc1ccc2c(c1)C(c1ccccc1Cl)=Nc1c(n[nH]c1C)N2,3.14,> 17.3,> 25,> 25,> 25,> 25,13.9 µM,> 25,> 25,> 25,> 25,> 25,25,> 25,22.6,> 25,> 25000,> 25,> 25,> 25
CSc1ccc2c3c(n(C[C@H](O)CO)c(=O)c2c1)-c1ccccc1C3=O,12.5,> 100,3.13,15.1,3.32,18,1.53 µM,8.94,4.09,58.3,12.9,93.9,1.39,4.64,2.95,12.7,1620,4.86,4.44,49.9
C=C(c1ccc(C(=O)N(C)c2ccccc2N)cc1)C(C)N1C(=O)[C@H]2CCCN2C(=O)c2ccccc21 (some centres undefined),17.1,77.5,58.5,> 100,23.6,> 100,53.4 µM,> 100,50.1,> 100,37.2,> 100,24,> 100,61.6,> 100,7520,37.7,20.2,> 100
O=C(Cc1cccc(OC(F)(F)F)c1)Nc1ccc(CCCCc2nnc(NC(=O)Cc3ccccn3)s2)nn1,11.1,38.6,29.8,> 100,52.4,> 100,2.85 µM,28.9,36.3,> 100,6.19,25.9,19.9,> 100,13.1,45.8,452,32.3,> 100,> 100
C=C1C(=O)O[C@H]2[C@H]1CC/C(COC(=O)CSCC(=O)OC/C1=C/CC[C@@]3(C)O[C@H]3[C@H]3OC(=O)C(=C)[C@@H]3CC1)=C\CC[C@@]1(C)O[C@@H]21,3.13,10.5,1.63,3.34,2.12,4.56,1.44 µM,2.83,1.63,3.87,1.43,3.6,1.69,3.95,2.26,7.07,1450,4.01,12,40.2
COC(=O)[C@]12CC[C@@H](C)[C@H](C)[C@@H]1C1=CC[C@@H]3[C@@]4(C)C=C(O)C(=O)[C@@]5(C)COC(=C54)C[C@@]3(C)[C@]1(C)CC2,14.8,43.1,11.9,29.7,11.5,26.7,10.1 µM,24.4,11.7,27.3,14,28.9,,,4.19,18.2,5570,29.7,14.3,45.6
COc1ccc(/C=C/C(=O)Oc2cc(O)cc(O)c2)cc1,,> 100,,> 100,,> 100,,> 100,,> 100,,> 100,,> 100,,> 100,,42.4,,> 100
CN1CCN(Cc2ccc(NC(=O)c3ccc(C#Cc4c(N)ncc5ccc(F)cc45)cc3)cc2C(F)(F)F)CC1,,,1.14,2.04,0.87,1.62,0.967 µM,2.26,0.919,1.71,0.705,1.45,1,1.84,0.968,1.89,1080,2.48,1.08,2.32
O=C(CCl)N1c2ccccc2Sc2ccc3ccccc3c21,1.16,2.4,1.64,3.14,1.8,3.25,0.281 µM,1.07,1.66,3.43,1.16,2.51,1.53,2.88,1.18,2.54,1320,4.06,2.18,5.26
CC(C)NC(=O)OCc1c(COC(=O)NC(C)C)c(-c2ccc(Cl)cc2)n2c1CCC2,1.7,8.44,2.96,12.3,6.77,20.4,2.05 µM,6.8,2.99,11.1,1.41,5.09,2.08,7.56,2.15,12.5,2600,23.8,3.05,16.8
O=C(N/N=C/c1ccccc1O)C(=O)Nc1ccc(F)cc1,14.2,69.4,3.23,> 100,4.61,> 100,2.18 µM,54.1,4.87,40.4,,,3.32,23.1,7.31,> 100,7900,> 100,3,> 100
O=C(Nc1ccc(Cl)cc1)c1cc(-c2ccc(Cl)cc2)c2sc(=O)[nH]c2n1,1.7,8.03,1.66,3.56,2.17,14.5,1.59 µM,5.36,2.75,10.3,0.526,3.94,1.04,4.91,1.24,6.85,1210,14.2,1.98,7.61
COc1ccccc1C#Cc1ccccc1C#CCCCCCC#Cc1ccccc1C#Cc1ccccc1OC,1.81,14.3,60.3,> 100,18.8,69.7,> 100 µM,> 100,48.7,> 100,,,> 100,> 100,43.9,> 100,29000,> 100,78.6,> 100
O=C(O)c1cc2cc(OCc3ccccc3)c(OCc3ccccc3)cc2[nH]1,17.3,55.6,28.2,79,18.7,34.7,13.8 µM,27.6,24.2,60.8,,,17.5,34.5,17.2,38.1,23000,68.4,20.2,49.1
CCCCCCCCCCCCSC(=N)N,16.2,35,2.03,8.28,2.31,5.62,5.71 µM,19.8,5.16,17.2,,,15.7,31,16.3,32.8,2940,10.2,10.5,26.3
COc1ccc(-n2c3c(c4c(CN5CCOCC5)c(O)ccc42)CCc2ccccc2C3=O)cc1,,,52.1,> 100,> 100,> 100,> 100 µM,> 100,> 100,> 100,59.5,> 100,> 100,> 100,24.9,> 100,24400,> 100,25,88.9
